The test relates to Mycosphaerella graminicola; Anamorph: Septoria tritici; Bayer Code SEPTTR. Kind of test: Leaf blotch of wheat, foliar fungicide treatment, one day protectant (1DP) or three day curative (3DC). It is filed as in vivo, Septoria tritici on wheat plants (variety Yuma). To be noted: Zymoseptoria tritici, percent control rating; for pest or weed control at 100 ppm: read-out: SEPTTR 3DC 100 ppm.

The mark [1] stands for this setting: 24 h, one day protectant (1DP), 25 ppm (first 1DP column), read-out: SETTTR 1DP 25 ppm.
[2] abbreviates: 24 h, one day protectant (1DP), 25 ppm as printed (second 1DP column), read-out: SETTTR 1DP 25 ppm.
Where [3] appears, read: 72 h, three day curative (3DC), 25 ppm, read-out: SEPTTR 3DC 25 ppm.

Like-named read-outs stand apart in the source and are kept apart here.

With `C=CCOc1ncc(F)c(N/N=C/C(C)=C/C)n1` [Compound 1063], the pest or weed control at 25 ppm is, setting by setting: under setting [1], 0 to 25%; under setting [2], 0 to 25%; under setting [3], 0 to 25%. Moreover, under “72 h, three day curative (3DC)”, the pest or weed control at 100 ppm was in the range of 0 to 25%.
As for `C=CCOc1ncc(F)c(N/N=C/c2ccco2)n1` [Compound 1064], the pest or weed control at 25 ppm fell in the range of 0 to 25% under setting [1], 0 to 25% under setting [2] and 0 to 25% under setting [3]. Besides, the pest or weed control at 100 ppm (72 h, three day curative (3DC)) was 0 to 25%.
With `COc1ncc(F)c(N(C)O)n1` [Compound 1066], the pest or weed control at 25 ppm reads like this: under setting [1], 0 to 25%; under setting [2], 0 to 25%; under setting [3], 0 to 25%. In addition, where the note is “72 h, three day curative (3DC)”, the pest or weed control at 100 ppm was in the range of 0 to 25%.
For `COc1ncc(F)c(N(O)C(C)C)n1` [Compound 1067], the pest or weed control at 25 ppm reads like this: under setting [1], 0 to 25%; under setting [2], 0 to 25%; under setting [3], 0 to 25%. In addition, the pest or weed control at 100 ppm (72 h, three day curative (3DC)) was in the range of 0 to 25%.
Take `CN(Cc1ccc(Cl)cc1)c1nc(O)ncc1F` [Compound 1068]: the pest or weed control at 25 ppm is, setting by setting: under setting [1], 0 to 25%; under setting [2], 0 to 25%; under setting [3], 0 to 25%. Further, where the note is “72 h, three day curative (3DC)”, the pest or weed control at 100 ppm was in the range of 0 to 25%.
As to `Cc1ccc(CN(C)c2nc(O)ncc2F)cc1` [Compound 1069], the pest or weed control at 25 ppm by setting is: under setting [1], 0 to 25%; under setting [2], 0 to 25%; under setting [3], 51 to 75%. The pest or weed control at 100 ppm (72 h, three day curative (3DC)) lay in the range of 51 to 75%.
For `COc1ccccc1CN(C)c1nc(O)ncc1F` [Compound 1070], the pest or weed control at 25 ppm under setting [1] is 26 to 50%, the pest or weed control at 25 ppm under setting [2] is 0 to 25% and the pest or weed control at 25 ppm under setting [3] lay within 0 to 25%. The pest or weed control at 100 ppm (72 h, three day curative (3DC)) is 0 to 25%.
As to `CN(Cc1ccc(C(F)(F)F)cc1)c1nc(O)ncc1F` [Compound 1071], the pest or weed control at 25 ppm is, setting by setting: under setting [1], 0 to 25%; under setting [2], 26 to 50%; under setting [3], 26 to 50%. Where the note is “72 h, three day curative (3DC)”, the pest or weed control at 100 ppm lay in the range of 26 to 50%.
On to `C=CCOc1ncc(F)c(NOCC)n1` [Compound 1072], for which the pest or weed control at 25 ppm under setting [1] fell in the range of 0 to 25%, the pest or weed control at 25 ppm under setting [2] lay within 0 to 25% and the pest or weed control at 25 ppm under setting [3] lay within 0 to 25%. Moreover, the pest or weed control at 100 ppm (72 h, three day curative (3DC)) fell in the range of 0 to 25%.
Consider `COc1ncc(F)c(NOCc2ccc([N+](=O)[O-])cc2)n1` [Compound 1073], for which the pest or weed control at 25 ppm was in the range of 26 to 50% under setting [1], 0 to 25% under setting [2] and 0 to 25% under setting [3]. Under “72 h, three day curative (3DC)”, the pest or weed control at 100 ppm lay within 0 to 25%.
Turning to `C=CCOc1ncc(F)c(NNc2cc(C)ccc2C)n1` [Compound 1074], the pest or weed control at 25 ppm fell in the range of 0 to 25% under setting [1], 0 to 25% under setting [2] and 0 to 25% under setting [3]. Besides, the pest or weed control at 100 ppm (72 h, three day curative (3DC)) lay in the range of 26 to 50%.
In the case of `C=CCOc1ncc(F)c(NO[Si](C)(C)C(C)(C)C)n1` [Compound 1075], the pest or weed control at 25 ppm was 0 to 25% under setting [1], 0 to 25% under setting [2] and 0 to 25% under setting [3]. Moreover, the pest or weed control at 100 ppm (72 h, three day curative (3DC)) lay in the range of 0 to 25%.
As to `COc1ccc(CONc2nc(OC)ncc2F)cc1` [Compound 1076], the pest or weed control at 25 ppm runs as follows: under setting [1], 0 to 25%; under setting [2], 0 to 25%; under setting [3], 0 to 25%. Moreover, the pest or weed control at 100 ppm (72 h, three day curative (3DC)) lay in the range of 26 to 50%.
Regarding `C=CCOc1ncc(F)c(NNc2ccccc2F)n1` [Compound 1077], the pest or weed control at 25 ppm lay within 0 to 25% under setting [1], 0 to 25% under setting [2] and 0 to 25% under setting [3]. Also, the pest or weed control at 100 ppm (72 h, three day curative (3DC)) lay within 26 to 50%.
Regarding `C=CCOc1ncc(F)c(NNc2ccc(Br)cc2)n1` [Compound 1078], the pest or weed control at 25 ppm under setting [1] lay in the range of 0 to 25%, the pest or weed control at 25 ppm under setting [2] lay in the range of 0 to 25% and the pest or weed control at 25 ppm under setting [3] was in the range of 26 to 50%. Besides, the pest or weed control at 100 ppm (72 h, three day curative (3DC)) lay in the range of 0 to 25%.
With `COc1ncc(F)c(NO[Si](C)(C)C(C)(C)C)n1` [Compound 1079], the pest or weed control at 25 ppm runs as follows: under setting [1], 0 to 25%; under setting [2], 0 to 25%; under setting [3], 0 to 25%. Also, the pest or weed control at 100 ppm (72 h, three day curative (3DC)) is 0 to 25%.
`COc1ncc(F)c(N(O)Cc2ccccc2)n1` [Compound 1080]: the pest or weed control at 25 ppm was in the range of 0 to 25% under setting [1], 0 to 25% under setting [2] and 26 to 50% under setting [3]. For the same compound, the pest or weed control at 100 ppm (72 h, three day curative (3DC)) is 26 to 50%.
As for `COc1ncc(F)c(NOCCOc2ccccc2)n1` [Compound 1081], the pest or weed control at 25 ppm lay in the range of 0 to 25% under setting [1], 0 to 25% under setting [2] and 0 to 25% under setting [3]. The pest or weed control at 100 ppm (72 h, three day curative (3DC)) was in the range of 0 to 25%.
As for `Oc1ncc(F)c(NCOCc2ccccc2)n1` [Compound 1082], the pest or weed control at 25 ppm lay in the range of 0 to 25% under setting [1], 0 to 25% under setting [2] and 0 to 25% under setting [3]. The pest or weed control at 100 ppm (72 h, three day curative (3DC)) lay within 0 to 25%.
`CC(=O)OCOc1ncc(F)c(/N=C/N(C)C)n1` [Compound 1083]: the pest or weed control at 25 ppm reads like this: under setting [1], 76 to 100%; under setting [2], 76 to 100%; under setting [3], 76 to 100%. For the same compound, for the setting “72 h, three day curative (3DC)”, the pest or weed control at 100 ppm was in the range of 76 to 100%.
As to `CN(C)/C=N/c1nc(OCOC(=O)C2CCCC2)ncc1F` [Compound 1084], the pest or weed control at 25 ppm is 76 to 100% under setting [1], 76 to 100% under setting [2] and 76 to 100% under setting [3]. For the same compound, the pest or weed control at 100 ppm (72 h, three day curative (3DC)) is 76 to 100%.
As to `CN(C)/C=N/c1nc(OCOC(=O)c2ccccc2)ncc1F` [Compound 1085], the pest or weed control at 25 ppm by setting is: under setting [1], 76 to 100%; under setting [2], 76 to 100%; under setting [3], 76 to 100%. In addition, the pest or weed control at 100 ppm (72 h, three day curative (3DC)) was 76 to 100%.
Turning to `C=CCOc1ncc(F)c(NNc2cccc(F)n2)n1` [Compound 1086], the pest or weed control at 25 ppm reads like this: under setting [1], 0 to 25%; under setting [2], 0 to 25%; under setting [3], 0 to 25%. In addition, for the setting “72 h, three day curative (3DC)”, the pest or weed control at 100 ppm lay in the range of 0 to 25%.
On to `C=CCOc1ncc(F)c(NOCc2ccccc2)n1` [Compound 1087], for which the pest or weed control at 25 ppm under setting [1] lay within 0 to 25%, the pest or weed control at 25 ppm under setting [2] was in the range of 0 to 25% and the pest or weed control at 25 ppm under setting [3] was 0 to 25%. Moreover, the pest or weed control at 100 ppm (72 h, three day curative (3DC)) was in the range of 0 to 25%.
On to `C=CCOc1ncc(F)c(N(O)Cc2ccccc2)n1` [Compound 1088], for which the pest or weed control at 25 ppm reads like this: under setting [1], 0 to 25%; under setting [2], 26 to 50%; under setting [3], 0 to 25%. Besides, the pest or weed control at 100 ppm (72 h, three day curative (3DC)) lay within 0 to 25%.
Turning to `Cc1ccc(COc2ncc(F)c(/N=N/c3cc(C)ccc3C)n2)cc1` [Compound 1089], the pest or weed control at 25 ppm fell in the range of 0 to 25% under setting [1], 0 to 25% under setting [2] and 26 to 50% under setting [3]. Further, the pest or weed control at 100 ppm (72 h, three day curative (3DC)) lay within 26 to 50%.
As for `Fc1ccc(COc2ncc(F)c(/N=N/c3ccc(Cl)c(Cl)c3)n2)cc1` [Compound 1090], the pest or weed control at 25 ppm is, setting by setting: under setting [1], 0 to 25%; under setting [2], 0 to 25%; under setting [3], 26 to 50%. The pest or weed control at 100 ppm (72 h, three day curative (3DC)) was 26 to 50%.
Regarding `CC(C)(C)NNc1nc(O)ncc1F` [Compound 1092], the pest or weed control at 25 ppm lay in the range of 0 to 25% under setting [1], 26 to 50% under setting [2] and 0 to 25% under setting [3]. Further, the pest or weed control at 100 ppm (72 h, three day curative (3DC)) is 26 to 50%.
On to `NN(Cc1ccccc1)c1nc(O)ncc1F` [Compound 1093], for which the pest or weed control at 25 ppm is, setting by setting: under setting [1], 0 to 25%; under setting [2], 0 to 25%; under setting [3], 0 to 25%. Moreover, the pest or weed control at 100 ppm (72 h, three day curative (3DC)) lay in the range of 0 to 25%.
Take `Oc1ncc(F)c(N(O)Cc2ccccc2)n1` [Compound 1094]: the pest or weed control at 25 ppm is 0 to 25% under setting [1], 0 to 25% under setting [2] and 26 to 50% under setting [3]. Besides, the pest or weed control at 100 ppm (72 h, three day curative (3DC)) was in the range of 26 to 50%.
On to `Oc1ncc(F)c(NOCc2ccccc2)n1` [Compound 1095], for which the pest or weed control at 25 ppm reads like this: under setting [1], 0 to 25%; under setting [2], 0 to 25%; under setting [3], 0 to 25%. In addition, where the note is “72 h, three day curative (3DC)”, the pest or weed control at 100 ppm lay within 0 to 25%.
For the compound `CON(C)c1nc(O)ncc1F` [Compound 1096], the pest or weed control at 25 ppm reads like this: under setting [1], 0 to 25%; under setting [2], 0 to 25%; under setting [3], 0 to 25%. Further, the pest or weed control at 100 ppm (72 h, three day curative (3DC)) was in the range of 76 to 100%.
Turning to `COc1ncc(F)c(/N=N/c2c(Cl)cccc2Cl)n1` [Compound 1097], the pest or weed control at 25 ppm lay in the range of 0 to 25% under setting [1], 0 to 25% under setting [2] and 0 to 25% under setting [3]. Moreover, the pest or weed control at 100 ppm (72 h, three day curative (3DC)) is 26 to 50%.
As for `Oc1ncc(F)c(NNc2ccccc2Cl)n1` [Compound 1098], the pest or weed control at 25 ppm under setting [1] lay in the range of 0 to 25%, the pest or weed control at 25 ppm under setting [2] lay in the range of 0 to 25% and the pest or weed control at 25 ppm under setting [3] was in the range of 0 to 25%. Further, the pest or weed control at 100 ppm (72 h, three day curative (3DC)) lay within 0 to 25%.
On to `C=CCOc1ncc(F)c(/N=N/c2ccccc2F)n1` [Compound 1099], for which the pest or weed control at 25 ppm fell in the range of 0 to 25% under setting [1], 0 to 25% under setting [2] and 0 to 25% under setting [3]. The pest or weed control at 100 ppm (72 h, three day curative (3DC)) fell in the range of 0 to 25%.
Turning to `C=CCOc1ncc(F)c(/N=N/c2ccc(Br)cc2)n1` [Compound 1100], the pest or weed control at 25 ppm by setting is: under setting [1], 0 to 25%; under setting [2], 0 to 25%; under setting [3], 26 to 50%. Besides, the pest or weed control at 100 ppm (72 h, three day curative (3DC)) lay within 26 to 50%.
As for `CS(=O)(=O)Nc1nc(O)ncc1F` [Compound 1101], the pest or weed control at 25 ppm under setting [1] was 0 to 25%, the pest or weed control at 25 ppm under setting [2] lay in the range of 0 to 25% and the pest or weed control at 25 ppm under setting [3] lay within 0 to 25%. Moreover, under “72 h, three day curative (3DC)”, the pest or weed control at 100 ppm fell in the range of 0 to 25%.

Values taken from patent publication US9204653B2, “5-fluoro pyrimidine derivatives” (DOW AGROSCIENCES LLC, priority 2008, dated 2015).
